The values that follow are results of earlier work, collected in patent US20250295156A1, “LOADED GRANULES, THEIR PROCESS OF PRODUCTION AND THEIR USES” (Evie SA, priority 2019, published 2025).

The conditions of series [1]: humans, orally; no reported psychomotor slowing, negative mood effects, or vital sign abnormalities (Bergamaschi et al., 2011).
For another series, the target named is cannabinoid CB2 receptor (Homo sapiens, UniProt P34972).
Chain of cannabinoid CB2 receptor (P34972 whole entry): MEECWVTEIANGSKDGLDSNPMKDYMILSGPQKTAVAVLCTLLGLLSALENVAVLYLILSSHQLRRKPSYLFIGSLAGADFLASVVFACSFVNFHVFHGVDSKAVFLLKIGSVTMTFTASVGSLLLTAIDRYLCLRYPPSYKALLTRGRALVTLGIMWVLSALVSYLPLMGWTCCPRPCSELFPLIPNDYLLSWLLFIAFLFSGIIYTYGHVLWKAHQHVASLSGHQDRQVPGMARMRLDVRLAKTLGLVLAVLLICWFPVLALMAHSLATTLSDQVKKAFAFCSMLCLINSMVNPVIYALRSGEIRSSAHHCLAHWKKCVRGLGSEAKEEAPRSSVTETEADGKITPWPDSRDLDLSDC

Turning to `C=C(C)[C@@H]1CCC(C)=C[C@H]1c1c(O)cc(CCCCC)cc1O` [Cannabidiol], the well tolerated dose entry in series [1] is “up to 1500 mg/day”. Also, the “affinity for CB2 receptor” value on cannabinoid CB2 receptor was “very low affinity”.
